Laboratory results published in US8263593B2, “Therapeutic compounds” (Allergan, Inc., priority 2008, dated 2012).

Test system: lashes and adjacent hairs
Experiment: Observation of lashes and adjacent hairs in glaucoma patients treated in one eye
Type: in vivo
Description: In the course of treating patients having glaucoma, treatment may only be appropriate in one eye. […] The lash appearance on the lids of the treated eyes would have appeared quite attractive if it represented a bilateral phenomenon. As a result of its asymmetric nature, the long lashes on one side could be construed as disturbing from a cosmetic standpoint. A systemic examination was preformed as a result of the asymmetric phenomenon. It soon became apparent that this altered appearance was not an isolated finding. […] Definite differences could be identified to varying degrees in the lashes and adjacent hairs of all patients who were taking the drug on a unilateral basis for longer than 6 months.
The changes in the lashes were apparent on gross inspection in several patients once attention was focused on the issue. In those with light colored hair and lashes, the differences were only seen easily with the aid of the high magnification and lighting capabilities of the slit lamp biomicroscope. In the course of glaucoma follow-up examination, attention is generally immediately focused on the eye itself. As a result of the high power magnification needed only one eye is seen at a time and the eye is seen at a high enough power that the lashes are not in focus. […]

CCNC(=O)CCC/C=C\C[C@@H]1[C@@H](/C=C/[C@@H](O)CCc2ccccc2)[C@H](O)C[C@@H]1O [bimatoprost]
lash appearance in the treated eye versus the non-treated eye (glaucoma patient treated in one eye only): longer, thicker, and fuller
hair growth in treated versus control areas, multiple parameters of hair appearance (many subjects, unilateral treatment): hair growth is stimulated
